Assay results from publication PMC7787731, “Synthesis and Characterization of New Dihydronaphthalene Candidates as Potent Cytotoxic Agents against MCF-7 Human Cancer Cells” (BioMed Research International, 2020).
Where two headings read alike, the source gives them in different places.

Experiments:
[1] = test system: MCF-7 (human breast adenocarcinoma) cell lines; assay: In vitro cytotoxicity MTT assay against breast cancer MCF-7 cells
Experimental: Both MCF-7 and MCF10A cells were purchased from American Type Culture Collection (ATCC). Cells were grown in DMEM culture medium (Invitrogen/Life Technologies) supplemented with 10% FBS (Hyclone, USA), 10 μg/mL insulin (Sigma), and 1% penicillin-streptomycin antibiotic solution. Chemicals used were of cell culture grade and were purchased from Sigma or Invitrogen. Prior to the assay, cells (cells density 1.2–1.8 × 10,000 cells/well) were plated in 96-well plate with 100 μL medium and were allowed to grow for 24 h.
In vitro cytotoxic activity of the prepared compounds against breast (MCF-7) cancer cells was assessed using MTT assay [24, 25]. The assay depends on the mitochondrial reduction of the colorless 3-(4,5-methyl-2-thiazolyl)-2,5-diphenyl-2H-tetrazolium bromide (MTT) within viable cells into a dark blue formazan product. […] The supernatant was taken away from each well, and 100 μL of DMSO was added to each well to dissolve the formazan crystals. After mixing with a mechanical plate mixer, a microplate reader was used to measure the absorbance of each well at a wavelength of 570 nm. […] IC50 values were calculated from the linear regression of the corresponding calibration curves using the Origin® 6.1 software.
Results were analyzed with the help of SPSS 9.0 and were presented as mean ± SD of three replicates. The mean comparison between different evaluated groups was performed using ANOVA one-way analysis of variance. Statistical significance was defined when p < 0.05.

[2] = test system: normal epithelial breast cells (MCF10A); assay: In vitro cytotoxicity MTT assay against normal breast MCF10A cells; assay type: cell-based; settings: for IC50: Homo sapiens, MCF-10A, MTT assay, normal breast cell line, mean ± SD of three replicates
From the text: Statistical significance was defined when p < 0.05.

[3] = Homo sapiens, MCF7, 72 h, read-out: IC50 (μM) MCF-7, MTT assay, 0.39-100 μM, 3 days, mean ± SD of three replicates

Row | Compound | melting point [°C] | IC50 [1, 3] [µM] | decrease in cytotoxicity relative to N-ethyl thiourea derivative 3d ([1]; MCF-7, N-4-bromophenyl versus N-ethyl substitution) | IC50 [2] [µM] | less toxic than Saturosporin towards MCF01A normal cells ([2]; compared with Saturosporin as worded) | IC50 ([1]; read-out: IC50 (μM) MCF-7, MTT assay, 0.39-100 μM, 3 days, mean ± SD of three replicates) [µM]
1 | COc1ccc2c(c1)CCCC2=NNC(=S)Nc1ccc(Br)cc1 [Compound 3a, N-(4-Bromophenyl)-2-(6-methoxy-3,4-dihydronaphthalen-1(2H)-ylidene)hydrazine-1-carbo thioamide] | 191 to 193 | 12.7 ± 0.33 | more than 3 times | 35.4 ± 0.64 | – | –
2 | COc1ccc2c(c1)CCCC2=NNC(=S)Nc1ccc(F)cc1 [Compound 3b, N-(4-Fluorophenyl)-2-(6-methoxy-3,4-dihydronaphthalen-1(2H)-ylidene)hydrazine-1-carbo thioamide] | 154 to 156 | – | – | – | – | –
3 | COc1ccc2c(c1)CCCC2=NNC(=S)Nc1ccc(Oc2ccccc2)cc1 [Compound 3c, 2-(6-Methoxy-3,4-dihydronaphthalen-1(2H)-ylidene)-N-(4-phenoxyphenyl)-hydrazine-1-carbo thioamide] | 171 | – | – | – | – | –
4 | CCNC(=S)NN=C1CCCc2cc(OC)ccc21 [Compound 3d, N-(4-Ethyl)-2-(6-methoxy-3,4-dihydronaphthalen-1(2H)-ylidene)hydrazine-1-carbothioamide] | 150 to 153 | 3.73 ± 0.09 | – | 19.7 ± 0.51 | – | –
5 | COc1ccc2c(c1)CCCC2=NN1C(=O)CSC1=Nc1ccc(Br)cc1 [Compound 4a, 2-((4-Bromophenyl)imino)-3-((6-methoxy-3,4-dihydronaphthalen-1(2H)-ylidene)amino) thiazolidin-4-one] | 183 | 28.6 ± 0.74 | – | 68 ± 0.86 | – | –
6 | COc1ccc2c(c1)CCCC2=NN1C(=O)CSC1=Nc1ccc(F)cc1 [Compound 4b, 2-((4-Fluorophenyl)imino)-3-((6-methoxy-3,4-dihydronaphthalen-1(2H)-ylidene)amino) thiazolidin-4-one] | 190 | 10.2 ± 0.26 | – | 29.2 ± 0.36 | – | –
7 | COc1ccc2c(c1)CCCC2=NN1C(=O)CSC1=Nc1ccc(Oc2ccccc2)cc1 [Compound 4c, 3-((6-Methoxy-3,4-dihydronaphthalen-1(2H)-ylidene)amino)-2-((4-phenoxyphenyl)imino) thiazolidin-4-one] | 171 | – | – | – | – | –
8 | CCN=C1SCC(=O)N1N=C1CCCc2cc(OC)ccc21 [Compound 4d, 2-(Ethylimino)-3-((6-methoxy-3,4-dihydronaphthalen-1(2H)-ylidene)amino)thiazolidin-4-one] | 117 | 10.1 ± 0.26 | – | 30.7 ± 0.53 | – | –
9 | COc1ccc(C2C(C#N)=C(N)Oc3c2sc(=Nc2ccc(Br)cc2)n3N=C2CCCc3cc(OC)ccc32)cc1 (stereo not drawn) [Compound 5a, 5-Amino-2-((4-bromophenyl)imino)-3-((6-methoxy-3,4-dihydronaphthalen-1(2H)-ylidene)amino)-7-(4-methoxyphenyl)-3,7-dihydro-2H-pyrano [2,3-d]thiazole-6-carbonitrile] | 247 | 0.93 ± 0.02 | – | 17.2 ± 0.44 | about 18.45 folds | –
10 | COc1ccc2c(c1)CCCC2=Nn1c2c(sc1=Nc1ccc(Br)cc1)C(c1ccc([N+](=O)[O-])cc1)C(C#N)=C(N)O2 (stereo not drawn) [Compound 5b, 5-Amino-2-((4-bromophenyl)imino)-3-((6-methoxy-3,4-dihydronaphthalen-1(2H)-ylidene)amino)-7-(4-nitrophenyl)-3,7-dihydro-2H-pyrano [2,3-d]thiazole-6-carbonitrile] | 213 | – | – | – | – | –
11 | COc1ccc(C2C(C#N)=C(N)Oc3c2sc(=Nc2ccc(Oc4ccccc4)cc2)n3N=C2CCCc3cc(OC)ccc32)cc1 (stereo not drawn) [Compound 5d, 5-Amino-3-((6-methoxy-3,4-dihydronaphthalen-1(2H)-ylidene)amino)-7-(4-methoxyphenyl) -2-((4-phenoxyphenyl)imino)--3,7-dihydro-2H-pyrano [2,3-d]thiazole-6-carbonitrile] | 209 | 1.76 ± 0.04 | – | 16.3 ± 0.42 | – | –
12 | COc1ccc2c(c1)CCCC2=Nn1c2c(sc1=Nc1ccc(Oc3ccccc3)cc1)C(c1ccc([N+](=O)[O-])cc1)C(C#N)=C(N)O2 (stereo not drawn) [Compound 5e, 5-Amino-3-((6-methoxy-3,4-dihydronaphthalen-1(2H)-ylidene)amino)-7-(4-nitrophenyl)-2-((4-phenoxyphenyl)imino)--3,7-dihydro-2H-pyrano [2,3-d]thiazole-6-carbonitrile] | 223 | 2.36 ± 0.06 | – | 14.1 ± 0.36 | – | –
13 | COc1ccc2c(c1)CCCC2=Nn1c2c(sc1=Nc1ccc(Oc3ccccc3)cc1)C(c1ccco1)C(C#N)=C(N)O2 (stereo not drawn) [Compound 5f, 5-Amino-7-(furan-2-yl)-3-((6-methoxy-3,4-dihydronaphthalen-1(2H)-ylidene)amino)-2-((4-phenoxyphenyl)imino)-3,7-dihydro-2H-pyrano [2,3-d]thiazole-6-carbonitrile] | 280 | – | – | – | – | –
14 | COc1ccc2c(c1)CCCC2=NN1C(=O)C(=CN(C)C)SC1=Nc1ccc(Br)cc1 [Compound 6, 2-((4-Bromophenyl)imino)-5-((dimethylamino)methylene)-3-((6-methoxy-3,4-dihydronaphthalene-1(2H)-ylidene)amino)thiazolidin-4-one] | 236 | 7.48 ± 0.19 | – | 17.78 ± 0.16 | – | –
15 | CCOC(=O)c1cc2sc(=Nc3ccc(Br)cc3)n(N=C3CCCc4cc(OC)ccc43)c2nc1C [Compound 7, Ethyl-2-((4-bromophenyl)imino)-3-((6-methoxy-3,4-dihydronaphthalen-1(2H)-ylidene)amino)-5-methyl-2,3-dihydrothiazolo [4,5-b]pyridine-6-carboxylate] | 90 | – | – | – | – | –
16 | COc1ccc2c(c1)CCC/C2=N\n1/c(=N/c2ccc(Br)cc2)sc2cc(C(C)=O)c(C)nc21 [Compound 8] | 128 | 20 | – | 43.7 ± 0.59 | – | 20 ± 0.52
17 | COc1ccc2c(c1)CCCC2=Nn1c(=Nc2ccc(Br)cc2)sc2cc(C#N)c(=O)[nH]c21 [Compound 9, 2-((4-Bromophenyl)imino)-3-((6-methoxy-3,4-dihydronaphthalen-1(2H)-ylidene)amino)-5-oxo-2,3,4,5-tetrahydrothiazolo [4,5-b]pyridine-6-carbonitrile] | 224 | – | – | – | – | –
18 | COc1ccc2c(c1)CCCC2=Nn1c(=Nc2ccc(Br)cc2)sc2cc(C#N)c(=S)[nH]c21 [Compound 10, 2-((4-Bromophenyl)imino)-3-((6-methoxy-3,4-dihydronaphthalen-1(2H)-ylidene)amino)-5-thioxo-2,3,4,5-tetrahydrothiazolo [4,5-b]pyridine-6-carbonitrile] | 286 | 2.83 ± 0.07 | – | 15 ± 0.39 | – | –
19 | COc1ccc2c(c1)CCCC2=NN1C(=O)C(=CNc2nc3ccccc3[nH]2)SC1=Nc1ccc(Br)cc1 [Compound 11, 5-((1H-Benzo [d]imidazol-2-ylamino)methylene)-2-(4-bromophenylimino)-3-((6-methoxy-3,4-dihydronaphthalen-1(2H)-ylidene)amino)thiazolidin-4-one] | 220 | – | – | – | – | –
20 | COc1ccc2c(c1)CCCC2=NN1C(=O)C(=CNc2nccs2)SC1=Nc1ccc(Br)cc1 [Compound 12, 2-(4-Bromophenylimino)-3-((6-methoxy-3,4-dihydronaphthalen-1(2H)-ylidene)amino)-5-((thiazol-2-ylamino)methylene)thiazolidin-4-one] | 152 | – | – | – | – | –
